Assays:
[1] = Cytotoxicity against human HepG2(2.2.15) cells after 72 hrs by MTT assay; assay type: cell-based
Hepatitis B virus [2] = experiment: Inhibition of HBV HBsAg secretion in HepG2(2.2.15) cells after 72 hrs by ELISA method; assay type: functional, organism-based; settings: HepG2 2.2.15, 72 h
[3] = Selectivity index, ratio of CC50 for human HepG2(2.2.15) cells to IC50 for inhibition of HBV HBsAg secretion in HepG2(2.2.15) cells; assay type: functional
Hepatitis B virus [4] = experiment: Inhibition of HBV HBeAg secretion in HepG2(2.2.15) cells after 72 hrs by ELISA method; assay type: functional, organism-based; settings: HepG2 2.2.15, 72 h
[5] = Selectivity index, ratio of CC50 for human HepG2(2.2.15) cells to IC50 for inhibition of HBV HBeAg secretion in HepG2(2.2.15) cells; assay type: functional
Hepatitis B virus [6] = experiment: Inhibition of HBV DNA replication in HepG2(2.2.15) cells exposed to fresh medium supplemented with compound every other day for additional 5 days by real-time PCR-fluorescent probing method; assay type: functional, organism-based; settings: HepG2 2.2.15, 120 h
[7] = Selectivity index, ratio of CC50 for human HepG2(2.2.15) cells to IC50 for inhibition of HBV DNA replication in HepG2(2.2.15) cells; assay type: functional

Structure (SMILES)	CC50 at 72 h [1] [µM]	IC50 (Hepatitis B virus [2]) [µM]	Ratio CC50/IC50 [3]	IC50 (Hepatitis B virus [4]) [µM]	Ratio CC50/IC50 [5]	IC50 (Hepatitis B virus [6]) [µM]	Ratio CC50/IC50 [7]
O=C(O)c1ccccc1C(=O)OCc1cccc2c1CCOC2=O	130	72	1.8	56	2.3	84	1.6
CCCCCCCC(=O)OCc1cccc2c1CCOC2=O	> 3450	> 3450		> 3450		> 860	
O=C1OCCc2c(/C=C/c3ccccc3)cccc21	> 2430	> 2430		> 2430		110	>22.1
O=Cc1cccc2c1CCOC2=O	1760	1300	1.4	1140	1.5	760	2.3
C[C@H](Cn1cnc2c(N)ncnc21)OCP(=O)(O)O [TENOFOVIR ANHYDROUS]	1850	2320		1940		0.5	>3571.3
O=C(OCc1cccc2c1CCOC2=O)c1cccc([N+](=O)[O-])c1	> 2720	> 2720		> 2720		> 680	
O=C(OCc1cccc2c1CCOC2=O)c1cccnc1	> 2700	> 2700		> 2700		> 680	
CC(=O)OCc1cccc2c1CCOC2=O	> 2430	1310	>1.8	> 2430		> 860	
NC(=O)c1cccc2c1CCOC2=O	> 3290	> 3290		> 3290		820	>4
CCC(CC)C(=O)OCc1cccc2c1CCOC2=O	1890	> 2590		> 2590		> 650	
COc1cccc(/C=C/C(=O)OCc2cccc3c2CCOC3=O)c1	> 1620	> 1620		840	>1.9	45	>36
N=C(N)c1cccc2c1CCOC2=O	2050	2240		2840		380	5.4
O=C(O)c1cccc2c1CCOC2=O	> 4540	3180	>1.4	2950	>1.5	390	>11.6
O=C1OCCc2c(/C=N\O)cccc21	> 4000	> 4000		2330	>1.7	360	>11.1
O=C1OCCc2c1cccc2C1OCCO1	> 2580	> 2580		2180	>1.2	570	>4.5
O=C(OCc1cccc2c1CCOC2=O)c1cc2ccccc2o1	830	1630	<1	> 2670		540	1.5
O=C(OCc1cccc2c1CCOC2=O)c1ccc([N+](=O)[O-])cc1	> 2260	> 2260		> 2260		> 560	
O=C1OCCc2c(CO)cccc21	> 3800	2700	>1.4	1460	>2.6	170	>22.4
O=C1OCCc2c(COC(=O)C3CCCCC3)cccc21	> 1840	> 1840		> 1840		26	>70.8
CCOCC(=O)OCc1cccc2c1CCOC2=O	> 3680	> 3680		> 3680		> 920	
O=C(OCc1cccc2c1CCOC2=O)c1ccco1	> 2350	> 2350		> 2350		> 840	
O=C1OCCc2c(/C=C\c3ccccc3)cccc21	> 2160	> 2160		> 2160		80	>27
O=C1OCCc2c(/C=N/Nc3ccc([N+](=O)[O-])cc3[N+](=O)[O-])cccc21	> 1650	> 1650		1340	>1.2	> 410	
O=C1/C(=C/c2cccc3c2CCOC3=O)Oc2cc(O)ccc21	> 1810	> 1810		> 1810		> 450	
O=C(OCc1cccc2c1CCOC2=O)c1cc2ccccc2[nH]1	> 2050	> 2050		> 2050		77	>26.6
O=C(OCc1cccc2c1CCOC2=O)c1cc(=O)c2ccccc2o1	2570	2300	1.1	1810	1.4	520	4.9

Source: ChEMBL document CHEMBL3396983, “Synthesis of erythrocentaurin derivatives as a new class of hepatitis B virus inhibitors” (Bioorg Med Chem Lett, 2015)
